ChEMBL document CHEMBL1201862, “PubChem BioAssay data set” (2004)
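Test compounds were applied to cells in 96-well plates for 48 hours at 5 doses. GI50 = concentration required for 50% inhibition of growth.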 The source made the active and inactive calls. Rule as the data show it: active = GI50 up to about 1.1 µM and inactive = higher.

Legend:
Assay in all cases: NCI-60 cell line screen, 48 h
HOP-92 = tested on: HOP-92
BT-549 = tested on: BT-549
SR = tested on: SR
OVCAR-4 = tested on: OVCAR-4
RXF 393 = tested on: RXF 393
NCI/ADR-RES = tested on: NCI/ADR-RES
HT-29 = tested on: HT-29
SK-MEL-28 = tested on: SK-MEL-28
PC-3 = tested on: PC-3
MDA-MB-231 = tested on: MDA-MB-231
SNB-75 = tested on: SNB-75
UO-31 = tested on: UO-31
HCT-15 = tested on: HCT-15
KM12 = tested on: KM12
OVCAR-8 = tested on: OVCAR-8
Hs-578T = tested on: Hs-578T
UACC-257 = tested on: UACC-257
HCT-116 = tested on: HCT-116
LOX IMVI = tested on: LOX IMVI
RPMI-8226 = tested on: RPMI-8226
HL-60 = tested on: HL-60
SK-MEL-5 = tested on: SK-MEL-5
M14 = tested on: M14
U-251 = tested on: U-251
SK-OV-3 = tested on: SK-OV-3
NCI-H226 = tested on: NCI-H226
MDA-N = tested on: MDA-N
SF-539 = tested on: SF-539
COLO 205 = tested on: COLO 205
SW-620 = tested on: SW-620
EKVX = tested on: EKVX
NCI-H522 = tested on: NCI-H522
NCI-H460 = tested on: NCI-H460
HOP-62 = tested on: HOP-62
OVCAR-5 = tested on: OVCAR-5
CAKI-1 = tested on: CAKI-1
T47D = tested on: T47D
K562 = tested on: K562
NCI-H23 = tested on: NCI-H23
786-0 = tested on: 786-0
CCRF-CEM = tested on: CCRF-CEM
IGROV-1 = tested on: IGROV-1
SN12C = tested on: SN12C
UACC-62 = tested on: UACC-62
SNB-19 = tested on: SNB-19
Malme-3M = tested on: Malme-3M
A549 = tested on: A549
MCF7 = tested on: MCF7
SF-268 = tested on: SF-268
TK-10 = tested on: TK-10
DU-145 = tested on: DU-145
MOLT-4 = tested on: MOLT-4
ACHN = tested on: ACHN
HCC 2998 = tested on: HCC 2998
OVCAR-3 = tested on: OVCAR-3
SK-MEL-2 = tested on: SK-MEL-2
A498 = tested on: A498
SF-295 = tested on: SF-295
MDA-MB-435 = tested on: MDA-MB-435

O=c1c2ccccc2n2nnc3ccc(NCCCNCCNCCCNc4ccc5nnn6c7ccccc7c(=O)c4c56)c1c32
GI50 (HOP-92): > 10.6 µM (inactive) | GI50 (BT-549): 7.36 µM (inactive) | GI50 (SR): 0.0883 µM (active) | GI50 (OVCAR-4): 2.3 µM (inactive) | GI50 (RXF 393): 1.37 µM (inactive) | GI50 (NCI/ADR-RES): 12.6 µM (inactive) | GI50 (HT-29): 0.121 µM (active) | GI50 (SK-MEL-28): > 18.5 µM (inactive) | GI50 (PC-3): 3.21 µM (inactive) | GI50 (MDA-MB-231): 1.01 µM (active) | GI50 (SNB-75): 7.89 µM (inactive) | GI50 (UO-31): 2.86 µM (inactive) | GI50 (HCT-15): 3.33 µM | GI50 (KM12): 3.24 µM (inactive) | GI50 (OVCAR-8): 1.28 µM (inactive) | GI50 (Hs-578T): 5.52 µM (inactive) | GI50 (UACC-257): 8.73 µM (inactive) | GI50 (HCT-116): 0.207 µM (active) | GI50 (LOX IMVI): 0.566 µM (active) | GI50 (RPMI-8226): 0.716 µM (active) | GI50 (HL-60): 1.1 µM (active) | GI50 (SK-MEL-5): > 50 µM (inactive) | GI50 (M14): > 12.6 µM (inactive) | GI50 (U-251): 0.759 µM (active) | GI50 (SK-OV-3): > 20.3 µM (inactive) | GI50 (NCI-H226): 0.005 µM (active) | GI50 (MDA-N): 1.38 µM (inactive) | GI50 (SF-539): 0.724 µM (active) | GI50 (COLO 205): 1.39 µM (inactive) | GI50 (SW-620): 0.251 µM (active) | GI50 (EKVX): 7.03 µM (inactive) | GI50 (NCI-H522): 0.234 µM (active) | GI50 (NCI-H460): 0.505 µM (active) | GI50 (HOP-62): 2.99 µM (inactive) | GI50 (OVCAR-5): 6.44 µM (inactive) | GI50 (CAKI-1): 3.86 µM (inactive) | GI50 (T47D): > 37.4 µM (inactive) | GI50 (K562): 0.215 µM (active) | GI50 (NCI-H23): 3.83 µM (inactive) | GI50 (786-0): 0.48 µM (active) | GI50 (CCRF-CEM): 0.448 µM (active) | GI50 (IGROV-1): 0.57 µM (active) | GI50 (SN12C): 0.457 µM (active) | GI50 (UACC-62): 14.1 µM (inactive) | GI50 (SNB-19): 6.84 µM (inactive) | GI50 (Malme-3M): 5.83 µM (inactive) | GI50 (A549): 0.612 µM (active) | GI50 (MCF7): 0.447 µM (active) | GI50 (SF-268): 1.79 µM (inactive) | GI50 (TK-10): 0.832 µM (active) | GI50 (DU-145): 5.77 µM (inactive) | GI50 (MOLT-4): 0.0582 µM (active) | GI50 (ACHN): 0.986 µM (active) | GI50 (HCC 2998): 0.308 µM (active) | GI50 (OVCAR-3): 6.35 µM (inactive) | GI50 (SK-MEL-2): > 50 µM (inactive) | GI50 (A498): 16.3 µM (inactive) | GI50 (SF-295): 5.89 µM (inactive)

COc1cc(CCCOC(=O)/C=C/c2ccc(O)c(O)c2)cc(O)c1O
GI50 (BT-549): 30.7 µM (inactive) | GI50 (SR): 43.6 µM (inactive) | GI50 (OVCAR-4): 40 µM (inactive) | GI50 (RXF 393): 73.6 µM (inactive) | GI50 (HT-29): 31.6 µM (inactive) | GI50 (SK-MEL-28): 58.3 µM (inactive) | GI50 (PC-3): 32.4 µM (inactive) | GI50 (MDA-MB-231): 28.8 µM (inactive) | GI50 (SNB-75): 35.2 µM (inactive) | GI50 (UO-31): 37.5 µM (inactive) | GI50 (HCT-15): 91.8 µM | GI50 (KM12): 44.2 µM (inactive) | GI50 (OVCAR-8): 70.8 µM (inactive) | GI50 (Hs-578T): 35.6 µM (inactive) | GI50 (UACC-257): > 100 µM (inactive) | GI50 (HCT-116): 17.7 µM (inactive) | GI50 (LOX IMVI): 17.6 µM (inactive) | GI50 (RPMI-8226): 27.4 µM (inactive) | GI50 (HL-60): 25.5 µM (inactive) | GI50 (SK-MEL-5): 31.2 µM (inactive) | GI50 (M14): > 100 µM (inactive) | GI50 (U-251): 36.8 µM (inactive) | GI50 (SK-OV-3): > 100 µM (inactive) | GI50 (NCI-H226): > 100 µM (inactive) | GI50 (MDA-N): 22.8 µM (inactive) | GI50 (SF-539): 28.4 µM (inactive) | GI50 (COLO 205): 94.6 µM (inactive) | GI50 (SW-620): 18.8 µM (inactive) | GI50 (EKVX): > 100 µM (inactive) | GI50 (NCI-H522): 15 µM (inactive) | GI50 (NCI-H460): 49.8 µM (inactive) | GI50 (HOP-62): > 100 µM (inactive) | GI50 (OVCAR-5): > 100 µM (inactive) | GI50 (CAKI-1): 58.3 µM (inactive) | GI50 (T47D): 27.9 µM (inactive) | GI50 (K562): 33.2 µM (inactive) | GI50 (NCI-H23): 56.4 µM (inactive) | GI50 (786-0): 49 µM (inactive) | GI50 (CCRF-CEM): 30.8 µM (inactive) | GI50 (IGROV-1): 80.2 µM (inactive) | GI50 (SN12C): 29.2 µM (inactive) | GI50 (UACC-62): 27.9 µM (inactive) | GI50 (SNB-19): > 100 µM (inactive) | GI50 (Malme-3M): 74 µM (inactive) | GI50 (A549): 69.2 µM (inactive) | GI50 (MCF7): 24.8 µM (inactive) | GI50 (SF-268): 25.2 µM (inactive) | GI50 (TK-10): > 100 µM (inactive) | GI50 (DU-145): > 100 µM (inactive) | GI50 (MDA-MB-435): 28.6 µM (inactive) | GI50 (MOLT-4): 27.5 µM (inactive) | GI50 (ACHN): > 100 µM (inactive) | GI50 (HCC 2998): > 100 µM (inactive) | GI50 (OVCAR-3): 42.1 µM (inactive) | GI50 (SK-MEL-2): 83.2 µM (inactive) | GI50 (A498): > 100 µM (inactive) | GI50 (SF-295): 35.1 µM (inactive)
